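Step 1: Grow cells in 96-well plates. Step 2: Expose to compound for 48 hours at 5 concentrations. Step 3: Interpolate endpoints linearly; if unreached, use highest concentration. At the TGI there is no net growth.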
How the values were obtained:
Assay in all cases: growth of human tumour cells (NCI), 48 h
NCI/ADR-RES ovarian = tested on: NCI/ADR-RES ovarian
M14 melanoma = tested on: M14 melanoma
SNB-75 CNS = tested on: SNB-75 CNS
UACC-62 melanoma = tested on: UACC-62 melanoma
OVCAR-3 ovarian = tested on: OVCAR-3 ovarian
RXF 393 renal = tested on: RXF 393 renal
MDA-MB-231 breast = tested on: MDA-MB-231 breast
U251 CNS = tested on: U251 CNS
SN12C renal = tested on: SN12C renal
IGROV1 ovarian = tested on: IGROV1 ovarian
SNB-19 CNS = tested on: SNB-19 CNS
MOLT-4 leukemia = tested on: MOLT-4 leukemia
BT-549 breast = tested on: BT-549 breast
HT29 colon = tested on: HT29 colon
CAKI-1 renal = tested on: CAKI-1 renal
SR leukemia = tested on: SR leukemia
SF-268 CNS = tested on: SF-268 CNS
LOX IMVI melanoma = tested on: LOX IMVI melanoma
A549 NSCLC = tested on: A549 NSCLC
K-562 leukemia = tested on: K-562 leukemia
SF-539 CNS = tested on: SF-539 CNS
OVCAR-4 ovarian = tested on: OVCAR-4 ovarian
OVCAR-5 ovarian = tested on: OVCAR-5 ovarian
TK-10 renal = tested on: TK-10 renal
HOP-92 NSCLC = tested on: HOP-92 NSCLC
786-0 renal = tested on: 786-0 renal
NCI-H23 lung = tested on: NCI-H23 lung
T-47D breast = tested on: T-47D breast
HCC-2998 colon = tested on: HCC-2998 colon
SW-620 colon = tested on: SW-620 colon
KM12 colon = tested on: KM12 colon
OVCAR-8 ovarian = tested on: OVCAR-8 ovarian
SF-295 CNS = tested on: SF-295 CNS
EKVX NSCLC = tested on: EKVX NSCLC
UACC-257 melanoma = tested on: UACC-257 melanoma
HCT-116 colon = tested on: HCT-116 colon
HCT-15 colon = tested on: HCT-15 colon
RPMI-8226 leukemia = tested on: RPMI-8226 leukemia
SK-MEL-2 melanoma = tested on: SK-MEL-2 melanoma
UO-31 renal = tested on: UO-31 renal
ACHN renal = tested on: ACHN renal
NCI-H226 lung = tested on: NCI-H226 lung
SK-MEL-28 melanoma = tested on: SK-MEL-28 melanoma
SK-OV-3 ovarian = tested on: SK-OV-3 ovarian
MDA-MB-435 = tested on: MDA-MB-435
MDA-N = tested on: MDA-N
HS 578T breast = tested on: HS 578T breast
MCF7 breast = tested on: MCF7 breast
MALME-3M melanoma = tested on: MALME-3M melanoma
COLO 205 colon = tested on: COLO 205 colon
HOP-62 NSCLC = tested on: HOP-62 NSCLC
SK-MEL-5 melanoma = tested on: SK-MEL-5 melanoma
CCRF-CEM leukemia = tested on: CCRF-CEM leukemia
HL-60(TB) leukemia = tested on: HL-60(TB) leukemia
NCI-H522 lung = tested on: NCI-H522 lung
PC-3 prostate = tested on: PC-3 prostate
DU-145 prostate = tested on: DU-145 prostate
NCI-H460 lung = tested on: NCI-H460 lung

Cc1ccc(/C=N/Nc2ccc3ccccc3n2)s1
TGI (NCI/ADR-RES ovarian): > 100 µM | TGI (M14 melanoma): 58.8 µM | TGI (SNB-75 CNS): > 100 µM | TGI (UACC-62 melanoma): > 100 µM | TGI (OVCAR-3 ovarian): 28.9 µM | TGI (RXF 393 renal): > 100 µM | TGI (MDA-MB-231 breast): 65.9 µM | TGI (U251 CNS): 67.6 µM | TGI (SN12C renal): 28.4 µM | TGI (IGROV1 ovarian): 53.8 µM | TGI (SNB-19 CNS): 59 µM | TGI (MOLT-4 leukemia): > 100 µM | TGI (BT-549 breast): 68.7 µM | TGI (HT29 colon): 44 µM | TGI (CAKI-1 renal): > 100 µM | TGI (SR leukemia): > 100 µM | TGI (SF-268 CNS): > 100 µM | TGI (LOX IMVI melanoma): 36.5 µM | TGI (A549 NSCLC): 40 µM | TGI (K-562 leukemia): > 100 µM | TGI (SF-539 CNS): > 100 µM | TGI (OVCAR-4 ovarian): > 100 µM | TGI (OVCAR-5 ovarian): > 100 µM | TGI (TK-10 renal): > 100 µM | TGI (HOP-92 NSCLC): 78.3 µM | TGI (786-0 renal): 35.8 µM | TGI (NCI-H23 lung): > 100 µM | TGI (T-47D breast): > 100 µM | TGI (HCC-2998 colon): 30.7 µM | TGI (SW-620 colon): 92.1 µM | TGI (KM12 colon): > 100 µM | TGI (OVCAR-8 ovarian): > 100 µM | TGI (SF-295 CNS): 38.4 µM | TGI (EKVX NSCLC): 32.2 µM | TGI (UACC-257 melanoma): > 100 µM | TGI (HCT-116 colon): 24 µM | TGI (HCT-15 colon): > 100 µM | TGI (RPMI-8226 leukemia): 86.9 µM | TGI (SK-MEL-2 melanoma): > 100 µM | TGI (UO-31 renal): > 100 µM | TGI (ACHN renal): 39.9 µM | TGI (NCI-H226 lung): > 100 µM | TGI (SK-MEL-28 melanoma): 55.9 µM | TGI (SK-OV-3 ovarian): > 100 µM | TGI (MDA-MB-435): 56.7 µM | TGI (MDA-N): 29.2 µM | TGI (HS 578T breast): > 100 µM | TGI (MCF7 breast): 45.1 µM | TGI (MALME-3M melanoma): 41.2 µM | TGI (COLO 205 colon): 31.1 µM | TGI (HOP-62 NSCLC): 41.1 µM | TGI (SK-MEL-5 melanoma): 30.7 µM | TGI (CCRF-CEM leukemia): > 100 µM | TGI (HL-60(TB) leukemia): > 100 µM | TGI (NCI-H522 lung): 77.8 µM | TGI (PC-3 prostate): 31.5 µM

Cc1ccc2nc(-c3ccc(N4C(=O)C(Cl)C4c4ccc(Cl)cc4)cc3)sc2c1 (configuration not stated)
TGI (NCI/ADR-RES ovarian): 39.3 µM | TGI (DU-145 prostate): > 100 µM | TGI (M14 melanoma): 57 µM | TGI (UACC-62 melanoma): 31.3 µM | TGI (OVCAR-3 ovarian): 40.1 µM | TGI (MDA-MB-231 breast): 33 µM | TGI (U251 CNS): 42.4 µM | TGI (SN12C renal): 53.6 µM | TGI (SNB-19 CNS): > 100 µM | TGI (BT-549 breast): > 100 µM | TGI (HT29 colon): 4.02 µM | TGI (CAKI-1 renal): 35.6 µM | TGI (SR leukemia): 57.9 µM | TGI (SF-268 CNS): 68 µM | TGI (LOX IMVI melanoma): 18.7 µM | TGI (A549 NSCLC): 36.9 µM | TGI (K-562 leukemia): 60.2 µM | TGI (SF-539 CNS): 35.3 µM | TGI (OVCAR-4 ovarian): 8.38 µM | TGI (OVCAR-5 ovarian): 45.3 µM | TGI (NCI-H460 lung): 46.2 µM | TGI (TK-10 renal): 38.1 µM | TGI (HOP-92 NSCLC): 18.9 µM | TGI (786-0 renal): 56.9 µM | TGI (NCI-H23 lung): 53.7 µM | TGI (T-47D breast): > 100 µM | TGI (SW-620 colon): 48 µM | TGI (KM12 colon): > 100 µM | TGI (OVCAR-8 ovarian): 81.1 µM | TGI (SF-295 CNS): 32.1 µM | TGI (EKVX NSCLC): 19.9 µM | TGI (UACC-257 melanoma): 47.7 µM | TGI (HCT-116 colon): 59.4 µM | TGI (HCT-15 colon): 81.5 µM | TGI (RPMI-8226 leukemia): 38.6 µM | TGI (UO-31 renal): 45.8 µM | TGI (ACHN renal): 50.7 µM | TGI (NCI-H226 lung): 36 µM | TGI (SK-MEL-28 melanoma): 31.5 µM | TGI (SK-OV-3 ovarian): 28 µM | TGI (MDA-MB-435): 36.6 µM | TGI (MDA-N): 40.9 µM | TGI (HS 578T breast): 66.8 µM | TGI (MCF7 breast): 32.7 µM | TGI (MALME-3M melanoma): > 100 µM | TGI (COLO 205 colon): 27.8 µM | TGI (HOP-62 NSCLC): 61.7 µM | TGI (SK-MEL-5 melanoma): 28.2 µM | TGI (CCRF-CEM leukemia): 36.7 µM | TGI (HL-60(TB) leukemia): > 100 µM | TGI (PC-3 prostate): 36.8 µM

From PubChem BioAssay (NCI)
